Tested on: isolierter Meerschweinchen-Herzvorhöfe
Experiment: Effect on contraction amplitude of isolated guinea pig heart atria
Settings: Wirkstoffkonzentration 10⁻³ g/l, read-out: Substanzeffekte auf die Kontraktionsamplitude, Änderung in %

## CCCCCCCCCCOC(=O)C1=C(C)NC(C)=C([N+](=O)[O-])C1c1ccccc1OC(F)F (racemic) [Beispiel 1, 4-(2-Difluormethoxyphenyl)-1,4-dihydro-2,6-dimethyl-3-nitro-pyridin-5-carbonsäure-decylester]
  activation at 1 µg/mL: 45%

Source: EP0315019A2, “Fluoromethoxyphenyl-dihydropyridines, process for their preparation and their use in drugs” (BAYER AG, priority 1987, dated 1989)
